According to patent publication US8940770B2, “Nitropyridinyl ethyleneimine compound, the pharmaceutical composition containing it, the preparation method and use thereof” (Beijing Yiling Bioengineering Co., Ltd, priority 2008, dated 2015):
Read-outs that look alike come from different tables or passages of the source.

Key:
[1] = tested on: human non-small cell lung cancer cell line A549; experiment: SRB cell viability assay, wild-type A549, normoxic and hypoxic drug treatment; format: cell-based; conditions: for IC50: Homo sapiens, 4 h drug treatment, then 4 days normoxic culture, SRB, mean ± SD; for HCR O2/N2 (WT): wild-type A549, HCR = IC50 in normoxia/IC50 in hypoxia
Method: (§1) Tumor cell strain: human non-small cell lung cancer cell line A549.
(§2) Reagent system: SRB, transfection kit
(§3) The cell strains/the cypor transfected cell strains were subject to normoxic and hypoxic cultivations respectively. Then, the cell vitality was analyzed by SRB assay and IC50 values were calculated. At last, the ratio of IC50 values in normoxia and in hypoxia (hypoxic cytotoxicity ratio, HCR) was calculated.
(§4) Both the human non-small cell lung cancer cell line A549 and the cypor transfected cell strains were cultivated in F12 cultivation medium containing 10% fetal bovine serum at 37° C. and in 5% CO2
(§5) The concentration gradient for the drug was set as 10^−3, 10^−4, 10^−5, 10^−6, and 10^−7 mol/L.
(§6) The crystallized powder of the active ingredient was dissolved in DMSO and formulated into a stock solution having a concentration which was 100 times of the maximal administrated concentration of the drug. The administrated concentrations of the drug could be prepared by directly diluting the stock solution with the corresponding serum-free cultivation medium.
(§7) the stock solution was stored at −80° C. in a refrigerator and the solutions of the drug to be administrated were prepared immediately before use.
(§8) The cell in the exponential growth phase was adjusted to a cell density of 1.0×10^5/ml and seeded into a 96-well plate at 100 μl per well. The drug was added under the normoxic and hypoxic condition respectively, according to the experimental grouping, and each of treatments using the drug lasted for 4 h.
(§9) After treatment using the drug was completed, the treated cells were normally cultivated under a normoxic condition for 4 days and then the cell survival rate was assayed by SRB. IC50 was calculated according to the equation of Lg IC50=Σ(Xi+Xi+1)(Pi+1−Pi)/2. Hypoxia cytotoxicity ratio (HCR) was obtained through dividing IC50 value in normoxia by IC50 value in hypoxia. The greater the HCR value is, the stronger the hypoxic selectivity of the drug will be.
(§10) All of the data were statistically analyzed using the software SPSS 11.5, the results were expressed as a mean±standard deviation ( X±SD), the inter-group difference was tested with the program One-Way ANOVA, P<0.05 means a statistically significant difference.

[2] = tested on: A549 transfected with human cytochrome P450 reducease (CYPOR); experiment: cells; format: cell-based; conditions: for IC50: Homo sapiens
Method: as §1, §2, §3, §4, §5, §6, §7, §8, §9, §10

[3] = wild-type A549, hypoxia (N2), read-out: IC50 N2 (WT)
[4] = wild-type A549, normoxia (O2), read-out: IC50 O2 (WT)
[5] = A549, read-out: IC50 N2 (CYPOR)
[6] = A549, read-out: IC50 O2 (CYPOR)

| Structure (SMILES) | IC50 [1, 3] [µM] | IC50 [1, 4] [µM] | HCR O2/N2 (WT) [1] | melting point | HCR O2/N2 (CYPOR) [2] | IC50 [2, 5] [µM] | IC50 [2, 6] [µM] |
| --- | --- | --- | --- | --- | --- | --- | --- |
| NC(=O)c1ccnc(N2CC2)c1[N+](=O)[O-] [Compound II, 2-(1-ethyleneimine)-4-carbamoyl-3-nitropyridine] | 15.5 ± 2.67 | 198 ± 5.04 | 12.8 ± 2.87 | 170 °C (dec.) | 52.5 ± 3.51 | 2.7 ± 0.58 | 142 ± 10.1 |
| NC(=O)c1cnc(N2CC2)c([N+](=O)[O-])c1 [Compound III, 2-(1-ethyleneimine)-5-carbamoyl-3-nitropyridine] | 13.5 ± 3.2 | 257 ± 4.83 | 19.0 ± 3.91 | 150 °C (dec.) | 62.0 ± 8.32 | 2.3 ± 0.27 | 143 ± 9.96 |
| NC(=O)c1cc([N+](=O)[O-])cnc1N1CC1 [Compound IV, 2-(1-ethyleneimine)-3-carbamoyl-5-nitropyridine] | 56.6 ± 7.17 | 317.2 ± 2.79 | 5.6 ± 2.73 | 160 °C (dec.) | 21.3 ± 4.56 | 9.3 ± 3.2 | 198 ± 24.9 |
| NC(=O)c1ccc([N+](=O)[O-])c(N2CC2)n1 [Compound V, 2-(1-ethyleneimine)-6-carbamoyl-3-nitropyridine] | 9.4 ± 2.65 | 79.3 ± 4.77 | 8.4 ± 3.56 | 170 °C (dec.) | 35.9 ± 9.15 | 1.7 ± 0.38 | 61 ± 7.11 |
| NC(=O)c1cc(N2CC2)ncc1[N+](=O)[O-] [Compound VI, 2-(1-ethyleneimine)-4-carbamoyl-5-nitropyridine] | 5.5 ± 1.6 | 137 ± 7.34 | 25.0 ± 5.71 | 170 °C (dec.) | 108.7 ± 8.88 | 1.1 ± 0.16 | 120 ± 6.48 |
